For series [1], the system named is cerebral oedema induced by triethyl tin (TET) in the rat. The following applies: in vivo.
The conditions of series [2]: rat, in vivo; for weight gain (in words): po, 50 mg/kg/day.
The subject of series [3] is cerebral oedema induced by triethyl tin (TET) chloride in the rat. The following applies: administered during the intoxication with tin, measured after 5 days (Linee et al., 1984); cited from earlier work.

Like-named read-outs stand apart in the source and are kept apart here.

The text below walks through data of patent publication US20070021415A1, “Pharmaceutical composition for the prevention or treatment of cerebral oedemas” (priority 2005, published 2007).

For `CC1(c2ccccc2)OC(N)=Nc2ccc(Cl)cc21` (stereo not drawn) [desethyl-etifoxine, 2-amino-6-chloro-4-methyl-4-phenyl-4H-[3,1]benzoxazine], the Variation in percentage result is listed as “+0.39%” in series [1] and −0.09% in series [1] (po, 50 mg/kg/day). Besides, the “weight of the dried brain” value in series [1] (po) was “do not modify this parameter significantly”. Also, the “weight gain (in words)” value in series [2] is “does not disrupt the weight gain”.

On to `CCNC1=Nc2ccc(Cl)cc2C(C)(c2ccccc2)O1.Cl` (stereo not drawn) [etifoxine, 6-chloro-2-ethylamino-4-methyl-4-phenyl-4H-[3,1]benzoxazine hydrochloride], for which the “weight of the dried brain” value in series [1] (po) is “do not modify this parameter significantly”. The Variation in percentage in series [1] (po, 50 mg/kg/day) is −0.30%; in series [1] (po, 100 mg/kg/day), −0.07%. The “Body weight in grams (mean ± s.e.m.)” value in series [2] came out at 251 ± 4 grams. Moreover, the “weight gain (in words)” value in series [2] is reported as “does not disrupt weight gain”.

Turning to `CC[C@]12CCCN3CCc4c(n(c5ccccc45)[C@@](O)(C(=O)OC)C1)[C@@H]32` [vincamine], in series [3], the “activity in the preventive protocol” value is given as “active”.

For (−)eburnamonine, the “activity in the preventive protocol” value in series [3] was “active”.

In the case of dihydroergotoxin, the “activity in the preventive protocol” value in series [3] is “active”.
